Experimental data as given in patent US20220233566A1, “NOVEL CARBONATE COMPOUND HAVING PYRROLOPYRIMIDINE SKELETON OR PHARMACEUTICALLY ACCEPTABLE SALT THEREOF” (TAIHO PHARMACEUTICAL CO., LTD., priority 2019, published 2022).

Assay: Presence of prodrug in mouse and absorbency (plasma AUC after oral administration)
Format: in vivo
Settings: male, Balb/cA, mouse, 17 umol/kg, mice, 17 μmol/kg, administered compound itself in plasma, read-out: AUC0-6hr
Protocol: The dosage amounts of the compounds of Comparative Examples 1 to 5 and Examples 1 to 26 are those (mole/10 mL/kg) shown in Tables. Solutions for administration were prepared with an 0.5% aqueous solutions of HPMC so as to satisfy the dosage amounts.
Note that, the “amount of mole/10 mL/kg” means as follows: for example “10 mmol/10 mL/kg” means that 10 mmol of a test compound per body-weight (1 kg) of a mouse was dispersed or dissolved in a solution (10 mL) for administration. The same applies hereinafter.
The solutions for administration prepared above were orally administered to mice (Balb/cA, male) not fasted each by use of an oral administration sonde.
The mice were anesthetized with isoflurane 0.5, 1, 2, 4 and 6 hours after administration and blood was taken from the facial vein by use of a specific needle (animal lancet) and a heparin-coated hematocrit tube.
The blood sampled was immediately centrifuged (13000 rpm, 2 minutes, 4° C.) to prepare the plasma samples. After proteins were removed from the plasma samples, the concentrations of the test compound in the plasma samples were measured by LC/MS/MS.
The value of “area under the curve” (AUC) of drug concentration in blood versus time was calculated using analysis software such as Phoenix (registered trademark) WinNonlin (registered trademark).
In Table 3, “Comparative Example 1” and “Comparative Example 2” represent the “compound (Br form) of Comparative Example 1” and the “compound (I form) of Comparative Example 2”, respectively. In Table 4, “Comparative Example 6” represents the “compound (C1 form) of Comparative Example 6”.

AUC(0-t): 2.07 µM·h
SMILES: Nc1ncnc2c1c(Br)cn2[C@@H]1O[C@H](CO)[C@@H](O)[C@@H]1F [Comparative Example 1, (2R,3R,4S,5R)-5-(4-amino-5-bromo-7H-pyrrolo[2,3-d]pyrimidin-7-yl)-4-fluoro-2-(hydroxymethyl) tetrahydrofuran-3-ol]
